Read-outs that look alike come from different tables or passages of the source.
Experiments:
SAOS-2 (osteosarcoma) = experiment: WST-1 cell proliferation assay, cytotoxicity screening; format: cell-based; conditions: Homo sapiens, read-out: growth percent (GP) SAOS-2
Source text: (§1) Selected human tumor and nontumor cell lines Jurkat (acute T-cell leukemia), MOLT-4 (acute lymphoblastic leukemia), A549 (lung carcinoma), HT-29 (colorectal adenocarcinoma), PANC-1 (pancreas epithelioid carcinoma), A2780 (ovarian carcinoma), HeLa (cervix adenocarcinoma), MCF-7 (breast adenocarcinoma), SAOS-2 (osteosarcoma) and MRC-5 (nontumor lung fibroblasts) were purchased from European Collection of Authenticated Cell Cultures (ECACC, Salisbury, UK) and cultured according to the provider’s culture method guidelines. […] The cells in low passage number (nontumor primary cell line MRC-5 was used for a maximum of 10 passages and cancer cell lines were used for a maximum of 20 passages) and in an exponential growth phase were used for this study.
(§2) Each cell line was seeded at a previously established optimal density (1 × 10^3 to 50 × 10^3 cells per well) in a 96-well plate (TPP, Trasadingen, Switzerland) and cells were allowed to settle overnight. During screening tests for cytotoxicity, cells were treated with alkaloids at a final concentration of 10 μM for 48 h. Doxorubicin (Sigma-Aldrich, St. Louis, USA), at a concentration of 1 μM, was used as a positive control. At the end of the culture period, the WST-1 proliferation assay (Roche, Basel, Switzerland) was performed according to the manufacturer’s protocol. The absorbance was determined using a Tecan Spark microplate reader (Tecan, Männedorf, Switzerland). Each value is the mean of three independent experiments and represents the percentage of the proliferation of control, nontreated cells (100%). The growth percent (GP) value as the mean of the proliferation decrease was calculated for each cell line and derivative tested.

[1] = test system: HT-29 (colorectal adenocarcinoma); experiment: as above; format: cell-based; conditions: Homo sapiens, read-out: growth percent (GP) HT-29
Source text: as §1, §2

[2] = test system: A2780 (ovarian carcinoma); experiment: as above; format: cell-based; conditions: Homo sapiens, read-out: growth percent (GP) A2780
Source text: as §1, §2

A549 (lung carcinoma) = experiment: as above; format: cell-based; conditions: Homo sapiens, read-out: growth percent (GP) A549
Source text: as §1, §2

[3] = test system: HeLa (cervix adenocarcinoma); experiment: as above; format: cell-based; conditions: Homo sapiens, 48 h, read-out: growth percent (GP) HeLa
Source text: as §1, §2

[4] = test system: Jurkat (acute T-cell leukemia); experiment: as above; format: cell-based; conditions: Homo sapiens, 48 h, read-out: growth percent (GP) Jurkat
Source text: as §1, §2

[5] = test system: PANC-1 (pancreas epithelioid carcinoma); experiment: as above; format: cell-based; conditions: Homo sapiens, read-out: growth percent (GP) PANC-1
Source text: as §1, §2

[6] = test system: MCF-7 (breast adenocarcinoma); experiment: as above; format: cell-based, human; conditions: Homo sapiens, read-out: growth percent (GP) MCF-7
Source text: as §1, §2

[7] = test system: MOLT-4 (acute lymphoblastic leukemia); experiment: as above; format: cell-based, human; conditions: Homo sapiens, read-out: growth percent (GP) MOLT-4
Source text: as §1, §2

[8] = test system: nine human tumor and one nontumor cell lines; experiment: Cytotoxicity screening across the whole panel of cell lines; format: cell-based; conditions: Homo sapiens, read-out: GP value across the tested cell lines
Source text: Concerning the cytotoxicity of alkaloids isolated from Z. citrina, initially, Prakash and Vedanayaki investigated the MeOH extract of the bulbs for its in vitro cytotoxic activity using the MTT assay against three human cancer cell lines from different tissue origins: cervical cancer (HeLa), breast cancer (MCF-7), and oral squamous carcinoma (SCC-9). […] In this context, and to assess potential negative effects on human cell cultures, compounds 1, and 3–27 were screened in our study for cytotoxicity using a 10 μM single-dose regimen. The results were compared with those using the clinically approved antineoplastic agent doxorubicin at 1 μM. The effect on cell growth was investigated on nine human tumor and one nontumor cell lines, namely Jurkat (acute T-cell leukemia), MOLT-4 (acute lymphoblastic leukemia), A549 (lung carcinoma), HT-29 (colorectal adenocarcinoma), PANC-1 (pancreas epithelioid carcinoma), A2780 (ovarian carcinoma), HeLa (cervix adenocarcinoma), MCF-7 (breast adenocarcinoma), SAOS-2 (osteosarcoma) and MRC-5 (nontumor lung fibroblasts). […] No toxicity is valuable information, especially for compound 18, as it is a potent inhibitor of hAChE and hBChE.[27]
Selected human tumor and nontumor cell lines Jurkat (acute T-cell leukemia), MOLT-4 (acute lymphoblastic leukemia), A549 (lung carcinoma), HT-29 (colorectal adenocarcinoma), PANC-1 (pancreas epithelioid carcinoma), A2780 (ovarian carcinoma), HeLa (cervix adenocarcinoma), MCF-7 (breast adenocarcinoma), SAOS-2 (osteosarcoma) and MRC-5 (nontumor lung fibroblasts) were purchased from European Collection of Authenticated Cell Cultures (ECACC, Salisbury, UK) and cultured according to the provider’s culture method guidelines. All cell lines were maintained at 37 °C in a humidified 5% carbon dioxide and 95% air incubator. The cells in low passage number (nontumor primary cell line MRC-5 was used for a maximum of 10 passages and cancer cell lines were used for a maximum of 20 passages) and in an exponential growth phase were used for this study.
as §2

[9] = test system: MRC-5 (nontumor lung fibroblasts); experiment: WST-1 cell proliferation assay, cytotoxicity screening; format: cell-based; conditions: Homo sapiens, read-out: growth percent (GP) MRC-5; for activity at 10 µM: MRC5, 48 h
Source text: as §1, §2

[10] = SAOS-2, c = 10 μM, 48 h, % of proliferation of nontreated control
[11] = HT-29, c = 10 μM, 48 h, % of proliferation of nontreated control
[12] = A2780, c = 10 μM, 48 h, % of proliferation of nontreated control
[13] = A549, c = 10 μM, 48 h, % of proliferation of nontreated control
[14] = c = 10 μM, % of proliferation of nontreated control
[15] = PANC-1, c = 10 μM, 48 h, % of proliferation of nontreated control
[16] = MCF7, c = 10 μM, 48 h, % of proliferation of nontreated control
[17] = MOLT-4, c = 10 μM, 48 h, % of proliferation of nontreated control
[18] = 10 μM single dose, 48-h interval, all tested cell lines

SMILES	activity at 10 µM (SAOS-2 (osteosarcoma); SAOS-2, 48 h)	activity at 10 µM ([1]; HT-29, 48 h)	activity at 10 µM ([2]; A2780, 48 h)	activity at 10 µM (A549 (lung carcinoma); A549, 48 h)	activity at 10 µM [3]	activity at 10 µM [4]	activity at 10 µM ([5]; PANC-1, 48 h)	activity at 10 µM ([6]; MCF7, 48 h)	activity at 10 µM ([7]; MOLT-4, 48 h)	activity at 10 µM [9]	activity at 10 µM ([8]; 48 h)	further results
CC(=O)O[C@@H]1CC=C2CCN3Cc4cc5c(cc4[C@H]1[C@@H]23)OCO5 [Compound 26]	–	–	–	–	–	–	–	–	–	–	–	activity at 10 µM (SAOS-2 (osteosarcoma); [10]): 95%; activity at 10 µM [1, 11]: 107%; activity at 10 µM [2, 12]: 141%; activity at 10 µM (A549 (lung carcinoma); [13]): 113%; activity at 10 µM [3, 14]: 98%; activity at 10 µM [4, 14]: 132%; activity at 10 µM [5, 15]: 119%; activity at 10 µM [6, 16]: 131%; activity at 10 µM [7, 17]: 119%; activity at 10 µM [8, 18]: > 50%
CO[C@@H]1C=C[C@@]23c4cc5c(cc4[C@H](O)N(C[C@@H]2O)[C@H]3C1)OCO5 [Compound 13, haemanthidine]	35%	7%	52%	38%	25%	23%	38%	24%	11%	–	–	–
O[C@H]1[C@H]2c3cc4c(cc3CN3CCC(=C[C@@H]1O)[C@H]23)OCO4 [Compound 27, lycorine]	27%	5%	39%	27%	15%	5%	36%	27%	9%	25%	–	–
COc1cc2c(cc1OC)[C@@]13CC[C@@H](O)C[C@@H]1N(CC3)C2 [Compound 11]	97%	97%	107%	88%	98%	99%	100%	104%	95%	104%	> 50%	–
COc1cccc2c1C(=O)c1c(O)c3c(c(O)c1C2=O)C[C@@](O)(C(=O)CO)C[C@@H]3O[C@H]1C[C@H](N)[C@H](O)[C@H](C)O1 [doxorubicin, reference compound]	–	–	–	–	–	–	–	–	–	–	–	activity at 1 µM (SAOS-2 (osteosarcoma); SAOS-2, positive control, c = 1 μM, 48 h): 73%; activity at 1 µM ([1]; HT-29, positive control, c = 1 μM, 48 h): 77%; activity at 1 µM ([2]; A2780, positive control, c = 1 μM, 48 h): 5%; activity at 1 µM (A549 (lung carcinoma); A549, positive control, c = 1 μM, 48 h): 66%; activity at 1 µM ([3]; positive control, c = 1 μM): 7%; activity at 1 µM ([4]; positive control, c = 1 μM): 0%; activity at 1 µM ([5]; PANC-1, positive control, c = 1 μM, 48 h): 59%; activity at 1 µM ([9]; MRC5, positive control, c = 1 μM, 48 h): 40%; activity at 1 µM ([6]; MCF7, positive control, c = 1 μM, 48 h): 41%; activity at 1 µM ([7]; MOLT-4, positive control, c = 1 μM, 48 h): 0%
COc1cc2c(c(O)c1OC)[C@@]13CC[C@H](OC)C[C@@H]1N(CC3)C2O (stereo partly shown) [Compound 10, zephyranine F]	73%	88%	113%	81%	82%	89%	77%	99%	78%	97%	> 50%	–
O[C@@H]1C=C[C@]23CCN(Cc4cc5c(cc42)OCO5)[C@H]3C1 [Compound 14]	79%	84%	98%	80%	100%	91%	84%	79%	92%	83%	> 50%	–
CO[C@@H]1C=C[C@@]23c4cc5c(cc4CN(C[C@@H]2O)[C@H]3C1)OCO5 [Compound 12, haemanthamine]	34%	5%	38%	33%	16%	18%	37%	17%	6%	32%	–	–
COc1ccc2c3c1O[C@H]1C[C@@H](O)CC[C@@]31CCN(C)C2 [Compound 19]	97%	83%	92%	96%	82%	102%	102%	101%	105%	–	> 50%	–
COc1cc2c(cc1OC)[C@@H]1[C@H](O)[C@@H](OC)C=C3CCN(C2)[C@H]31 [Compound 23]	–	–	–	–	–	–	–	–	–	–	–	activity at 10 µM (SAOS-2 (osteosarcoma); [10]): 97%; activity at 10 µM [1, 11]: 64%; activity at 10 µM [2, 12]: 113%; activity at 10 µM (A549 (lung carcinoma); [13]): 93%; activity at 10 µM [3, 14]: 93%; activity at 10 µM [4, 14]: 98%; activity at 10 µM [5, 15]: 97%; activity at 10 µM [6, 16]: 114%; activity at 10 µM [7, 17]: 103%; activity at 10 µM [8, 18]: > 50%
CO[C@@H]1C=C[C@@]23c4cc5c(cc4CO[C@]2(O)CN(C)[C@H]3C1)OCO5 [Compound 20]	92%	57%	101%	83%	84%	93%	76%	94%	95%	–	> 50%	–
